Assays:
Type in all cases: biochemical
[1] = test system: Variovorax paradoxus β-aminotransferase; assay: Resolution of substrates with Variovorax paradoxus β-aminotransferase
Protocol: […] Reactions were typically run at 1 ml scale with gentle shaking at 26° C.
(§1) 10 ul of 2N HCl was added to a plastic screw capped vial and 90ul of sample was then added. The pH of the mixture confirmed to be below 4 and the mixture was centrifuged in a microcentrifuge at maximum speed for about 2 minutes to remove precipitated materials.
(§2) Samples were derivatized using Marfey's reagent, N•-(2,4-dinitro-5-fluorophenyl)-L-alaninamide. A stock solution of 10 mg/mL in acetone of this reagent was prepared. Either 20 or 40 ul of bioconversion sample was added to 20 ul 1.3 M KHCO3. To this was added 80 ul of the stock reagent solution, the vial sealed tightly, and heated at 70° C. for 10 minutes. As needed, after cooling to room temperature, the heated samples were centrifuged to remove solids. The supernatants were analyzed using an Eclipse XDB-C8 column, 4.6×150 mm, eluting with methanol gradient in water, from 50% methanol to 100% methanol. Both solvents were acidified with 0.1% trifluoroacetic acid.
(§3) For resolution experiments, the area of the peak consumed (converted to keto acid) was compared to the area remaining of the unconsumed peak, on the assumption that none was converted.

[2] = test system: β-aminotransferase from Alcaligenes eutrophus; assay: Resolution of substrates with cell lysate from Alcaligenes eutrophus
Protocol: (§4) A buffer consisting of 0.3M Tricine, 15 mM MgSO4, enough pyridoxal phosphate to impart a pale yellow color and 0.3M sodium glutamate (for deamination reactions) or 0.3 M 2-ketoglutarate monopotassium salt (for synthesis reactions) was prepared.
(§5) One part buffer was combined with two parts lysate and this mixture was then added to pre-weighed substrate to give a concentration of 1 mg/ml substrate. Reactions were typically run at 1 ml scale with gentle shaking at 26° C.
as §1, §2, §3

[3] = test system: β-aminotransferase enzyme from Variovorax paradoxus (CC-KGbPHe-I14); assay: D-β-aminotransferase keto acid substrate specificity; conditions: rate of conversion of D-β-phenylalanine to 3-keto-3-phenylpropionic acid as percent of the rate using α-ketoglutarate; 10 mg/ml α-keto acceptor, 1 hour, 37° C.
Protocol: Semi-purified β-aminotransferase enzyme from Variovorax paradoxus (CC-KGbPHe-I14) was assayed using D-β-phenylalanine as the amino donor, in an assay consisting of 100 mM potassium phosphate, 2 mg/ml DL-β-phenylalanine, 10 mg/ml α-keto acceptor and 0.1 mM pyridoxal phosphate, at pH 8.0. The reactions were run at 37° C. with mild stirring for 1 hour. At 1 hour reaction time, 0.1 ml samples were withdrawn, acidified with addition of 0.1 ml 0.1N HCl, and centrifuged. The supernatant solution was collected into HPLC sample vials. Conversion of DL-β-phenylalanine to 3-keto-3-phenylpropionate was quantified using reverse phase HPLC. The following keto acids were screened for activity: α-ketoglutaric acid, oxaloacetic acid, pyruvic acid, 3-oxoadipic acid, 2-oxoadipic acid, 1,3-acetonedicarboxylic acid, and 4-ketopimelic acid. The relative rates of conversion of D-β-phenylalanine to 3-keto-3-phenylpropionic acid using the various keto acceptors is reported as percent of the rate using α-ketoglutarate, the experimentally determined preferred acceptor.

[4] = test system: Variovorax paradoxus β-aminotransferase; assay: Synthesis of β-amino acid from β-keto acid with Variovorax paradoxus β-aminotransferase; conditions: cell lysate, 19 hours
Protocol: as §4, §5, §1, §2
For synthesis experiments, in which β-keto acid was converted to β-amino acid, the area of the peak(s) was compared to a standard curve derived for β-phenylalanine.

[5] = test system: β-aminotransferase enzyme from Variovorax paradoxus; assay: D-β-aminotransferase amino donor specificity; conditions: for substrate for the enzyme (amino donor): 2 mg/ml amino donor, 10 mg/ml α-ketoglutarate, 1 hour, 37° C.
Protocol: The same preparation of semi-purified β-aminotransferase enzyme from Variovorax paradoxus was then assayed using a-ketoglutarate as the keto acceptor, in an assay consisting of 100 mM potassium phosphate, 10 mg/ml α-ketoglutarate, 2 mg/ml amino donor and 0.1 mM pyridoxal phosphate, at pH 8.0. The reactions were run at 37° C. with mild stirring for 1 hour. At 1 hour reaction time, 0.1 ml samples were withdrawn, acidified with addition of 0.1 ml 0.1N HCl, and centrifuged. The supernatant solution was collected into HPLC sample vials. Conversion of an amino acid to the corresponding ketone was quantified using reverse phase HPLC. The following amino acids (as an amino donor) were screened for activity: α-(D)-phenylalanine, α-(L)-phenylalanine, β-(D)-phenylalanine, β-(L)-phenylalanine, (D)-3-amino-5-phenylpentanoic acid, and (L)-3-amino-5-phenylpentantoic acid.

[6] = test system: Alcaligenes eutrophus L-β-aminotransferase; assay: Substrate specificity of Alcaligenes eutrophus L-β-aminotransferase (crude cell homogenate); conditions: for MSB Culture Extract D(S)-b-Phe consumed at t = 1 Hr / MSB Culture Extract L(R)-b-Phe consumed at t = 1 Hr: cells grown in MSB; for MSB Culture Extract D(S)-b-Phe consumed at t = 1 Hr / MSB Culture Extract L(R)-b-Phe consumed at t = 1 Hr / NB Culture Extract of Alcaligenes eutrophus D(S)-b-Phe consumed at t = 1 Hr / NB Culture Extract of Alcaligenes eutrophus L(R)-b-Phe consumed at t = 1 Hr: keto acceptor with or without PLP as labelled; for NB Culture Extract of Alcaligenes eutrophus D(S)-b-Phe consumed at t = 1 Hr / NB Culture Extract of Alcaligenes eutrophus L(R)-b-Phe consumed at t = 1 Hr: cells grown in NB
Protocol: Cell-free homogenates were used in assays designed to determine substrate specificity. The assays contained: 0.1-0.3 mg/ml protein, 10 mg/ml keto acceptor, 1 mg/ml amino donor, 0.1 mM pyridoxal phosphate, and 100 mM potassium phosphate, at pH 8.0. The reactions were run at 37° C. with gentle stirring for 1 hour. At 1 hour reaction time, 0.1 ml samples were withdrawn, acidified with addition of 0.1 ml 0.1N HCl, and centrifuged. The supernatant solution was collected into HPLC sample vials. Conversion of amino acid to the corresponding ketone was quantified using reverse phase HPLC. Enzymatic activity was measured as the rate of conversion of amino donor in a one hour period. In a series of reactions, the enzymatic activity was determined with the following variables: inclusion or omission of pyridoxal phosphate, using α-ketoglutarate or pyruvate as a keto acceptor, and (D)- or (L)-β-phenylalanine as amino donor.

N[C@H](CC(=O)O)c1ccccc1 (racemic) [β-phenylalanine]
Peak consumption (later eluting peak) ([1]; cell lysate, 5 hours): >99% | Peak consumption (later eluting peak) ([1]; cell lysate, 23 hours): 82% | change in the concentration of the later eluting stereoisomer ([2]; after one day): no detectable change | earlier eluting peak remaining ([2]; after one day): not detectable

O=C(O)CC(=O)CC(=O)O [1,3-Acetonedicarboxylic Acid]
Relative Activity [3]: 0%

O=C(O)CCCC(=O)C(=O)O [2-Oxoadipic Acid]
Relative Activity [3]: 0.6%

NC1CCCCC1C(=O)O (stereo not shown) [2-aminocyclohexanecarboxylic acid]
Peak consumption (later eluting peak(s)) ([1]; cell lysate, 19 hours): >99%

O=C(O)CCC(=O)CC(=O)O [3-Oxoadipic Acid]
Relative Activity [3]: 6%

CCCC(=O)CC(=O)O [3-Oxohexanoic acid]
product stereoisomer peak observed [4]: only later eluting peak was observed | 3-aminohexanoic acid formed, using beta-phenylalanine as standard ([4]; approximately 50 mM substrate, approximately 60 mM glutamic acid): approximately 1 mg/mL

NC(CC(=O)O)c1cc2ccccc2o1 (stereo not shown) [3-amino-3-(2-benzofuryl))propanoic acid]
Peak consumption (later eluting peak) ([1]; cell lysate, 5 hours): 98%

NC(CC(=O)O)c1ccco1 (stereo not shown) [3-amino-3-(2-furyl)propanoic acid]
Peak consumption (earlier eluting peak) ([2]; 21 hours): 73% | Peak consumption (earlier eluting peak) ([2]; 21 hours, listed as 3-amino-3-(2-furyl) propanoic acid): 73%

NC(CC(=O)O)c1ccc2ccccc2c1 (stereo not shown) [3-amino-3-(2-naphthyl)propanoic acid]
Peak consumption (later eluting peak) ([1]; cell lysate, 5 hours): 50%

NC(CC(=O)O)c1cccnc1 (stereo not shown) [3-amino-3-(3-pyridyl)propanoic acid]
Peak consumption (later eluting peak) ([1]; cell lysate, 5 hours): >95%

NC(CC(=O)O)c1ccsc1 (stereo not shown) [3-amino-3-(3-thienyl)propanoic acid]
Peak consumption (earlier eluting peak) ([2]; 21 hours): 82% | Peak consumption (earlier eluting peak) ([2]; 22 hours): 82%

NC(CC(=O)O)c1ccc(Oc2ccccc2)cc1 (stereo not shown) [3-amino-3-(4-phenoxyphenyl)propanoic acid]
Peak consumption (later eluting peak) ([1]; cell lysate, 5 hours): 58%

NC(CC(=O)O)C1CCCCC1 (stereo not shown) [3-amino-3-cyclohexylpropanoic acid]
Peak consumption (later eluting peak) ([1]; cell lysate, 2 hours): >99%

NC(CC(=O)O)C1CC1 (stereo not shown) [3-amino-3-cyclopropylpropanoic acid]
early eluting peak observed ([1]; cell lysate, 0.225 M substrate, 0.45 M alpha-ketoglutarate, pH 8.1, 18.2 hours): 99.5% | Peak consumption (later eluting peak) ([1]; cell lysate, 22 hours): 98% | Peak consumption (earlier eluting peak) ([2]; 22 hours): approximately 42% | Peak consumption (earlier eluting peak) ([2]; 22 hours, listed as 3-amino-3-cyclopropyl propanoic acid): 42%

CC(C)C(N)CC(=O)O (stereo not shown) [3-amino-4-methylpentanoic acid]
Peak consumption (later eluting peak) ([1]; cell lysate, 48 hours): 65% | Peak consumption (later eluting peak) ([1]; cell lysate, 48 hours, listed as 3-amino-4-methylpentanoic): 65%

CCCC(N)CC(=O)O (stereo not shown) [3-aminohexanoic acid]
Peak consumption (later eluting peak) ([1]; cell lysate, 1 hour): >99%

O=C(O)CCC(=O)CCC(=O)O [4-Ketopimelic Acid]
Relative Activity [3]: 0%

N[C@H](CCc1ccccc1)CC(=O)O [(D)-3-amino-5-phenylpenantoic acid, D- or (R)-3-amino-5-phenyl-pentanoic acid]
substrate for the enzyme (amino donor) [5]: substrates for the enzyme

N[C@@H](CCc1ccccc1)CC(=O)O [(L)-3-amino-5-phenylpentantoic acid, L- or (S)-3-amino-5-phenyl-pentanoic acid]
substrate for the enzyme (amino donor) [5]: Only β-(D)-phenylalanine and (D)-3-amino-5-phenylpenantoic acid were substrates

O=C(O)CC(=O)C(=O)O [Oxaloacetic Acid]
Relative Activity [3]: 54%

CC(=O)C(=O)O [Pyruvic Acid]
Relative Activity [3]: 14% | MSB Culture Extract D(S)-b-Phe consumed at t = 1 Hr [6]: 7.789 | MSB Culture Extract L(R)-b-Phe consumed at t = 1 Hr [6]: 45.1865 | NB Culture Extract of Alcaligenes eutrophus D(S)-b-Phe consumed at t = 1 Hr [6]: 3.37 | NB Culture Extract of Alcaligenes eutrophus L(R)-b-Phe consumed at t = 1 Hr [6]: 48.61

N[C@H](CC(=O)O)c1cccc([N+](=O)[O-])c1 [m-nitro-β-phenylalanine]
Peak consumption (later eluting peak) ([1]; cell lysate, 23 hours): 95%

N[C@H](CC(=O)O)c1ccccc1F [o-fluoro-β-phenylalanine]
Peak consumption (later eluting peak) ([1]; cell lysate, 67 hours): 99% | Peak consumption (later eluting peak) ([1]; cell lysate, 67 hours, listed as o-fluoro-α-phenylalanine): 99%

N[C@H](CC(=O)O)c1ccc(F)cc1 [p-fluoro-β-phenylalanine]
Peak consumption (later eluting peak) ([1]; cell lysate, 23 hours): 82%

COc1ccc([C@H](N)CC(=O)O)cc1 [p-methoxy-β-phenylalanine]
Peak consumption (later eluting peak) ([1]; cell lysate, 23 hours): 80%

N[C@H](CC(=O)O)c1ccc([N+](=O)[O-])cc1 [p-nitro-β-phenylalanine]
Peak consumption (later eluting peak) ([1]; sodium sulfate purified beta-aminotransferase, 30 minutes): 98% | Peak consumption (later eluting peak) ([1]; sodium sulfate purified beta-aminotransferase, 30 minutes, listed as p-nitro-α-phenylalanine): approximately 98% | later eluting peak remaining ([1]; sodium sulfate purified beta-aminotransferase, after 1 hour): not detected | change in the concentration of the early eluting stereoisomer ([1]; sodium sulfate purified beta-aminotransferase, after 18 hours): no detectable change

N[C@H](Cc1ccccc1)C(=O)O [α-(D)-phenylalanine]
substrate for the enzyme (amino donor) [5]: Only β-(D)-phenylalanine and (D)-3-amino-5-phenylpenantoic acid were substrates

N[C@@H](Cc1ccccc1)C(=O)O [α-(L)-phenylalanine]
substrate for the enzyme (amino donor) [5]: Only β-(D)-phenylalanine and (D)-3-amino-5-phenylpenantoic acid were substrates

O=C(O)CCC(=O)C(=O)O [α-ketoglutarate]
Relative Activity [3]: 100% | MSB Culture Extract D(S)-b-Phe consumed at t = 1 Hr [6]: 0.966 | MSB Culture Extract L(R)-b-Phe consumed at t = 1 Hr [6]: 6.9281 | NB Culture Extract of Alcaligenes eutrophus D(S)-b-Phe consumed at t = 1 Hr [6]: 0.00 | NB Culture Extract of Alcaligenes eutrophus L(R)-b-Phe consumed at t = 1 Hr [6]: 3.41

N[C@@H](CC(=O)O)c1ccccc1 [β-(D)-phenylalanine, D- or (S)-3-amino-3-phenylpropionic acid]
substrate for the enzyme (amino donor) [5]: substrates for the enzyme | preference of the enzyme for the enantiomer ([5]; enzyme preferring α-ketoglutarate as amino acceptor, no activity on the L-enantiomer): 100%

N[C@H](CC(=O)O)c1ccccc1 [β-(L)-phenylalanine, L- or (R)-3-amino-3-phenylpropionic acid]
substrate for the enzyme (amino donor) [5]: Only β-(D)-phenylalanine and (D)-3-amino-5-phenylpenantoic acid were substrates | preference of the enzyme for the enantiomer ([6]; enzyme preferring pyruvic acid as amino acceptor, no activity on the D-enantiomer): 100%

— patent publication US20050009151A1, “Methods for the stereospecific and enantiomeric enrichment of beta-amino acids” (Pharmacia Corporation, priority 2003, published 2005)
